Consider 4 compounds from patent US12702693B2, “Treatment of cystic fibrosis by delivery of codon-optimized mRNA encoding CFTR” (Translate Bio, Inc., priority 2017, dated 2026).

The conditions of series [1]: available data; cited from earlier work.
In series [2] the test system is human bronchial epithelial cells. Description: Ussing chamber assay of Forskolin-induced chloride channel activity. The conditions noted are these: all groups. In kind it is cell-based. On the procedure:
The changes in chloride transport across the bronchial epithelial cell membrane was measured by short circuit current output in an Ussing epithelial voltage clamp apparatus (i.e., a Ussing chamber). Specifically, using an established Ussing Chamber procedure (Charles River Laboratories), hCFTR mRNA encapsulated in a liposome comprising ICE, DOPE, and a PEG-modified lipid was incubated for 2 or 4 hours on the apical (mucosal) or basolateral (serosal) sides, or both sides, of human bronchial epithelial cells. A buffer blank also was included as a control, for example, to assess chloride transport by endogenous CFTR in the cells. Next, Forskolin-induced chloride channel activity was measured using the Ussing chamber assay.

Regarding `CC(C)CCC[C@@H](C)[C@H]1CC[C@H]2[C@@H]3CC=C4C[C@@H](O)CC[C@]4(C)[C@H]3CC[C@]12C` [cholesterol], in series [1], the mutagenicity/genotoxicity data result is on record as “negative”.
Take `CCC(=O)O` [propionic acid]: the mutagenicity/genotoxicity data entry in series [1] is recorded as “negative”.
Turning to `O=C(O)c1ccc(/C=C2\SC(=S)N(c3cccc(C(F)(F)F)c3)C2=O)cc1` [CFTR inhibitor-172], in series [2], the “chloride activity after addition of CFTR inhibitor” value is on record as “inhibited”.
`c1c[nH]cn1` [imidazole]: the mutagenicity/genotoxicity data entry in series [1] is “negative”.
